Results published in patent US20250230141A1, “Substituted Fused Bicyclic Compounds and Related Methods of Treatment” (Alkermes, Inc., priority 2022, published 2025).
pEC50: −log10 of the molar value.

Target: T1, human orexin-2 receptor (OX2R) (Homo sapiens, UniProt O43614)
T1 construct: expressed in transfected cells
T1 sequence (O43614 1-444): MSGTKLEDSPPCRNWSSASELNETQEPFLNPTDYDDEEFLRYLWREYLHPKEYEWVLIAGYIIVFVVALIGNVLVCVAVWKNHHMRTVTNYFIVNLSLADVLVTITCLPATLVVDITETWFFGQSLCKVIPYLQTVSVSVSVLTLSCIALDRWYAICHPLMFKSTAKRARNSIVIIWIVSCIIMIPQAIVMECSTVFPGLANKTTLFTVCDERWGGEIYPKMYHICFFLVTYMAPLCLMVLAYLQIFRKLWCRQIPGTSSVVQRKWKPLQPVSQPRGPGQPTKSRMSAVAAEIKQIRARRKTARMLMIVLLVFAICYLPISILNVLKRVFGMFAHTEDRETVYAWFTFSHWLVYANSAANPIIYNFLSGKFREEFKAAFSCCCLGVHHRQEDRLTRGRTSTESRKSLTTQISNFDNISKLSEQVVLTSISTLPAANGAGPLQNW
Test: Human OX2R IP1 assay
Assay type: cell-based
Details: T-Rex CHO cells stably overexpressing human OX2R; IP1 accumulation, 1 hr at 37 degrees C; mean EC50
Experimental: T-Rex CHO cells stably overexpressing the human orexin-2 receptor (OX2R) were induced overnight with 1 μg/mL of doxycycline in a T225 flask. 24 hours post induction, cells were lifted with accutase and plated into a 384-well proxy plate at 30,000 cells/well. Cells were then treated with different test compounds in 1× stimulation buffer containing 10 mM Hepes, 1 mM CaCl2, 0.5 mM MgCl2, 4.2 mM KCl, 146 mM NaCl, 5.5 mM glucose, and 50 mM LiCl, pH 7.4, for 1 hr at 37 degrees C. Following incubation, the reaction was terminated by the addition of detection mix, which is composed of IP1-d2 and anti-IP1-cryptate diluted in lysis buffer as well as 1× stimulation buffer. The plates were allowed to incubate for 1 hour at room temperature and were then read in the EnVision® multimode plate reader, measuring inositol phosphate levels.
Cisbio IP1 is a cell-based functional assay quantifying the accumulation of inositol monophosphate (IP), a metabolite released as a result of orexin 2 receptor activation through the phospholipase C-Gq signaling pathway. This is a competitive immunoassay in which the IP1 produced by the cells upon receptor activation competes with the IP1 analog coupled to the d2 fluorophore (acceptor) for binding to an anti-IP1 monoclonal antibody labeled with Eu cryptate (donor). The measured HTRF-FRET based signal is inversely proportional to the IP1 concentration produced.
The EC50 values reported in Table 2 were obtained according to the human OX2R IP1 assay described above. Data are the mean EC50 values±S.E.M.

CS(=O)(=O)N[C@H]1CCN(c2ccccn2)C[C@H]1CO[C@H]1CC[C@@H](c2ccc3[nH]ncc3c2)CC1 [Compound 1] showed a pEC50 of over 9.00.
Work on O=S(=O)(N[C@H]1CCN(c2ccccn2)C[C@H]1CO[C@H]1CC[C@@H](c2ccc3[nH]ncc3c2)CC1)C(F)(F)F [Compound 2] yielded a pEC50 of 8.00 to 9.00.
With Cn1ncc2cc([C@H]3CC[C@@H](OC[C@@H]4CN(c5ccccn5)CC[C@@H]4NS(C)(=O)=O)CC3)ccc21 [Compound 3] the pEC50 was over 9.00.
CS(=O)(=O)N[C@H]1CCN(C(=O)C2(F)CCC2)C[C@H]1CO[C@H]1CC[C@@H](c2ccc3[nH]ncc3c2)CC1 [Compound 4] showed a pEC50 of 8.00 to 9.00.
In the case of COC(=O)N1CC[C@H](NS(C)(=O)=O)[C@H](CO[C@H]2CC[C@@H](c3ccc4[nH]ncc4c3)CC2)C1 [Compound 5], the pEC50 was 8.00 to 9.00.
Cn1ncc2cc([C@H]3CC[C@@H](OC[C@@H]4CN(c5ccccn5)CC[C@@H]4NS(C)(=O)=O)CC3)ncc21 [Compound 7] showed a pEC50 of under 8.00.
In the case of Cn1cnc2cc([C@H]3CC[C@@H](OC[C@@H]4CN(c5ccccn5)CC[C@@H]4NS(C)(=O)=O)CC3)ccc21 [Compound 8], the pEC50 was 8.00 to 9.00.
Work on Cn1cnc2ccc([C@H]3CC[C@@H](OC[C@@H]4CN(c5ccccn5)CC[C@@H]4NS(C)(=O)=O)CC3)cc21 [Compound 9] yielded a pEC50 of 8.00 to 9.00.
Cn1ncc2cc([C@H]3CC[C@@H](OC[C@@H]4CN(c5ccccn5)CC[C@@H]4NS(=O)(=O)C(F)(F)F)CC3)ccc21 [Compound 10] was tested, and the pEC50 was over 9.00.
In the case of Cn1ncc2cc([C@H]3CC[C@@H](OC[C@@H]4CN(C(=O)C5(F)CCC5)CC[C@@H]4NS(C)(=O)=O)CC3)ccc21 [Compound 11], the pEC50 was over 9.00.
Molecule COC(=O)N1CC[C@H](NS(C)(=O)=O)[C@H](CO[C@H]2CC[C@@H](c3ccc4c(cnn4C)c3)CC2)C1 [Compound 12] has a pEC50 of 8.00 to 9.00.
Cn1ncc2cc([C@H]3CC[C@@H](OC[C@@H]4CN(c5cccnn5)CC[C@@H]4NS(=O)(=O)C(F)(F)F)CC3)ccc21 [Compound 13] gave a pEC50 of over 9.00.
With Cn1ncc2cc([C@H]3CC[C@@H](OC[C@@H]4CN(C(=O)C5(F)CCC5)CC[C@@H]4NS(=O)(=O)C(F)(F)F)CC3)ccc21 [Compound 14] the pEC50 was 8.00 to 9.00.
Cn1ncc2cc([C@H]3CC[C@@H](OC[C@@H]4CN(c5cccnn5)CC[C@@H]4NS(C)(=O)=O)CC3)ccc21 [Compound 15] showed a pEC50 of 8.00 to 9.00.
Cn1cnc2cc([C@H]3CC[C@@H](OC[C@@H]4CN(C(=O)C5(F)CCC5)CC[C@@H]4NS(C)(=O)=O)CC3)ccc21 [Compound 16] gave a pEC50 of over 9.00.
For Cn1ncc2cc([C@H]3CC[C@@H](OC[C@@H]4CN(C(=O)[C@@H]5CCOC5)CC[C@@H]4NS(C)(=O)=O)CC3)ccc21 [Compound 17], the pEC50 was 8.00 to 9.00.
Cn1ncc2cc([C@H]3CC[C@@H](OC[C@@H]4CN(C(=O)C5CC5)CC[C@@H]4NS(C)(=O)=O)CC3)ccc21 [Compound 18] was tested, and the pEC50 was 8.00 to 9.00.
With Cn1cnc2ccc([C@H]3CC[C@@H](OC[C@@H]4CN(C(=O)C5(F)CCC5)CC[C@@H]4NS(C)(=O)=O)CC3)cc21 [Compound 19] the pEC50 was 8.00 to 9.00.
Molecule CC(=O)N1CC[C@H](NS(C)(=O)=O)[C@H](CO[C@H]2CC[C@@H](c3ccc4c(cnn4C)c3)CC2)C1 [Compound 20] has a pEC50 of under 8.00.
Cn1ncc2cc([C@H]3CC[C@@H](OC[C@@H]4CN(C(=O)C(C)(C)O)CC[C@@H]4NS(C)(=O)=O)CC3)ccc21 [Compound 21] was tested, and the pEC50 was 8.00 to 9.00.
Cn1ncc2cc([C@H]3CC[C@@H](OC[C@@H]4CN(C(=O)C(C)(C)C)CC[C@@H]4NS(C)(=O)=O)CC3)ccc21 [Compound 22] was tested, and the pEC50 was 8.00 to 9.00.
Cn1ncc2cc([C@H]3CC[C@@H](OC[C@@H]4CN(C(=O)N5CCC5)CC[C@@H]4NS(C)(=O)=O)CC3)ccc21 [Compound 23] gave a pEC50 of 8.00 to 9.00.
With Cn1ncc2cc([C@H]3CC[C@@H](OC[C@@H]4CN(c5cnccn5)CC[C@@H]4NS(=O)(=O)C(F)(F)F)CC3)ccc21 [Compound 25] the pEC50 was 8.00 to 9.00.
Cn1ncc2cc([C@H]3CC[C@@H](OC[C@@H]4CN(c5cccnn5)CC[C@@H]4NS(=O)(=O)C(F)(F)F)CC3)cc(F)c21 [Compound 26] showed a pEC50 of 8.00 to 9.00.
With Cn1ncc2cc([C@H]3CC[C@@H](OC[C@@H]4CN(C(=O)c5cncs5)CC[C@@H]4NS(C)(=O)=O)CC3)ccc21 [Compound 27] the pEC50 was 8.00 to 9.00.
Work on Cn1ncc2cc([C@H]3CC[C@@H](OC[C@@H]4CN(C(=O)[C@@]5(C)CCOC5)CC[C@@H]4NS(C)(=O)=O)CC3)ccc21 [Compound 28] yielded a pEC50 of 8.00 to 9.00.
With CNS(=O)(=O)N[C@H]1CCN(c2cccnn2)C[C@H]1CO[C@H]1CC[C@@H](c2ccc3c(cnn3C)c2)CC1 [Compound 29] the pEC50 was over 9.00.
For CN(C)S(=O)(=O)N[C@H]1CCN(c2cccnn2)C[C@H]1CO[C@H]1CC[C@@H](c2ccc3c(cnn3C)c2)CC1 [Compound 30], the pEC50 was over 9.00.
In the case of CN(C)S(=O)(=O)N[C@H]1CCN(C(=O)[C@@H]2CCOC2)C[C@H]1CO[C@H]1CC[C@@H](c2ccc3c(cnn3C)c2)CC1 [Compound 31], the pEC50 was 8.00 to 9.00.
Molecule Cn1ncc2cc([C@H]3CC[C@@H](OC[C@@H]4CN(C(=O)C5CCOC5)CC[C@@H]4NS(=O)(=O)C(F)(F)F)CC3)ccc21 (stereo partly drawn) [Compound 33] has a pEC50 of 8.00 to 9.00.
With Cn1ncc2cc([C@H]3CC[C@@H](OC[C@@H]4CN(C(=O)CN5CCOCC5)CC[C@@H]4NS(C)(=O)=O)CC3)ccc21 [Compound 45] the pEC50 was under 8.00.
For Cn1ncc2cc([C@H]3CC[C@@H](OC[C@@H]4CN(C(=O)CN5CCCCC5)CC[C@@H]4NS(C)(=O)=O)CC3)ccc21 [Compound 46], the pEC50 was under 8.00.
Cn1ncc2cc([C@H]3CC[C@@H](OC[C@@H]4CN(C(=O)C5COC5)CC[C@@H]4NS(C)(=O)=O)CC3)ccc21 [Compound 47] was tested, and the pEC50 was under 8.00.
In the case of Cn1ncc2cc([C@H]3CC[C@@H](OC[C@@H]4CN(C(=O)CO)CC[C@@H]4NS(C)(=O)=O)CC3)ccc21 [Compound 48], the pEC50 was under 8.00.
Molecule Cn1ccnc1CC(=O)N1CC[C@H](NS(C)(=O)=O)[C@H](CO[C@H]2CC[C@@H](c3ccc4c(cnn4C)c3)CC2)C1 [Compound 49] has a pEC50 of under 8.00.
With Cn1ncc2cc([C@H]3CC[C@@H](OC[C@@H]4CN(C(=O)Cc5ncccn5)CC[C@@H]4NS(C)(=O)=O)CC3)ccc21 [Compound 50] the pEC50 was under 8.00.
In the case of Cn1ncc2cc([C@H]3CC[C@@H](OC[C@@H]4CN(C(=O)Cc5cnccn5)CC[C@@H]4NS(C)(=O)=O)CC3)ccc21 [Compound 51], the pEC50 was under 8.00.
Cn1ncc2cc([C@H]3CC[C@@H](OC[C@@H]4CN(C(=O)Cc5ccncn5)CC[C@@H]4NS(C)(=O)=O)CC3)ccc21 [Compound 52] gave a pEC50 of under 8.00.
Cn1ncc2cc([C@H]3CC[C@@H](OC[C@@H]4CN(C(=O)C5CCO5)CC[C@@H]4NS(C)(=O)=O)CC3)ccc21 (stereo partly drawn) [Compound 53] showed a pEC50 of under 8.00.
Work on CN(C)C(=O)N[C@H]1CCN(c2cccnn2)C[C@H]1CO[C@H]1CC[C@@H](c2ccc3c(cnn3C)c2)CC1 [Compound 58] yielded a pEC50 of under 8.00.
In the case of Cn1ncc2cc([C@H]3CC[C@@H](OC[C@@H]4CN(C(=O)C5CCOC5)CC[C@@H]4NS(C)(=O)=O)CC3)ccc21 (stereo partly drawn) [Compound 59], the pEC50 was 8.00 to 9.00.
For Cn1ncc2cc([C@H]3CC[C@@H](OC[C@@H]4CN(C(=O)C5CCOC5)CC[C@@H]4NS(C)(=O)=O)CC3)ccc21 (stereo partly drawn) [Compound 60], the pEC50 was under 8.00.
Cn1ncc2cc([C@H]3CC[C@@H](OC[C@@H]4CN(CC(=O)N5CCCCC5)CC[C@@H]4NS(C)(=O)=O)CC3)ccc21 [Compound 61] was tested, and the pEC50 was under 8.00.
With Cn1ncc2cc([C@H]3CC[C@@H](OC[C@@H]4CN(C(=O)[C@H]5CCOC5)CC[C@@H]4NS(C)(=O)=O)CC3)ccc21 [Compound 62] the pEC50 was under 8.00.
Cn1cnc2ccc(C3CCC(OC[C@@H]4CN(c5ccccn5)CC[C@@H]4NS(C)(=O)=O)CC3)cc21 (stereo partly drawn) [Compound 63] showed a pEC50 of under 8.00.
Work on Cn1cnc2ccc([C@H]3CC[C@H](OC[C@@H]4CN(c5ccccn5)CC[C@@H]4NS(C)(=O)=O)CC3)cc21 [Compound 64] yielded a pEC50 of 8.00 to 9.00.
With Cn1ncc2ccc([C@H]3CC[C@H](OC[C@@H]4CN(c5ccccn5)CC[C@@H]4NS(C)(=O)=O)CC3)cc21 [Compound 65] the pEC50 was under 8.00.
In the case of Cn1ncc2ccc(C3CCC(OC[C@@H]4CN(c5ccccn5)CC[C@@H]4NS(C)(=O)=O)CC3)cc21 (stereo partly drawn) [Compound 66], the pEC50 was under 8.00.
